Laboratory results from ChEMBL document CHEMBL1201862, “PubChem BioAssay data set” (2004).
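Following 48 hours of exposure in 96-well plates, responses at five concentrations were used to interpolate endpoints linearly. GI50: concentration for 50% inhibition of growth.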 Calls of active or inactive are those of the source. Cut-off read from the data, not from the text of the source: active = GI50 up to about 1.1 µM and inactive = higher.

Key:
Experiment in all cases: NCI tumour cell line growth inhibition, 48 h
EKVX = system: EKVX
Malme-3M = system: Malme-3M
KM12 = system: KM12
HCT-15 = system: HCT-15
COLO 205 = system: COLO 205
OVCAR-3 = system: OVCAR-3
SW-620 = system: SW-620
SF-539 = system: SF-539
NCI-H226 = system: NCI-H226
TK-10 = system: TK-10
MDA-N = system: MDA-N
UACC-62 = system: UACC-62
MDA-MB-231 = system: MDA-MB-231
NCI-H460 = system: NCI-H460
ACHN = system: ACHN
HOP-92 = system: HOP-92
OVCAR-5 = system: OVCAR-5
HCT-116 = system: HCT-116
M14 = system: M14
NCI-H23 = system: NCI-H23
MCF7 = system: MCF7
RPMI-8226 = system: RPMI-8226
SK-MEL-2 = system: SK-MEL-2
OVCAR-4 = system: OVCAR-4
LOX IMVI = system: LOX IMVI
A549 = system: A549
SK-OV-3 = system: SK-OV-3
NCI/ADR-RES = system: NCI/ADR-RES
CCRF-CEM = system: CCRF-CEM
SF-268 = system: SF-268
SF-295 = system: SF-295
PC-3 = system: PC-3
RXF 393 = system: RXF 393
DU-145 = system: DU-145
K562 = system: K562
SN12C = system: SN12C
Hs-578T = system: Hs-578T
SNB-19 = system: SNB-19
U-251 = system: U-251
NCI-H522 = system: NCI-H522
HT-29 = system: HT-29
HCC 2998 = system: HCC 2998
SK-MEL-5 = system: SK-MEL-5
T47D = system: T47D
SNB-75 = system: SNB-75
UO-31 = system: UO-31
IGROV-1 = system: IGROV-1
SR = system: SR
SK-MEL-28 = system: SK-MEL-28
UACC-257 = system: UACC-257
OVCAR-8 = system: OVCAR-8
BT-549 = system: BT-549
786-0 = system: 786-0
HL-60 = system: HL-60
MOLT-4 = system: MOLT-4
CAKI-1 = system: CAKI-1
MDA-MB-435 = system: MDA-MB-435
HOP-62 = system: HOP-62

CS(C)(=O)=N/C=C\C(=O)C(Cl)(Cl)Cl
GI50 (EKVX): > 100 µM (inactive) | GI50 (Malme-3M): > 100 µM (inactive) | GI50 (KM12): > 100 µM (inactive) | GI50 (HCT-15): > 100 µM | GI50 (COLO 205): > 100 µM (inactive) | GI50 (OVCAR-3): > 100 µM (inactive) | GI50 (SW-620): > 100 µM (inactive) | GI50 (SF-539): > 100 µM (inactive) | GI50 (NCI-H226): > 100 µM (inactive) | GI50 (TK-10): > 100 µM (inactive) | GI50 (MDA-N): 65.2 µM (inactive) | GI50 (UACC-62): 92.3 µM (inactive) | GI50 (MDA-MB-231): > 100 µM (inactive) | GI50 (NCI-H460): > 100 µM (inactive) | GI50 (ACHN): > 100 µM (inactive) | GI50 (HOP-92): > 100 µM (inactive) | GI50 (OVCAR-5): > 100 µM (inactive) | GI50 (HCT-116): 98.6 µM (inactive) | GI50 (M14): > 100 µM (inactive) | GI50 (NCI-H23): > 100 µM (inactive) | GI50 (MCF7): > 100 µM (inactive) | GI50 (RPMI-8226): 83 µM (inactive) | GI50 (SK-MEL-2): 46.8 µM (inactive) | GI50 (OVCAR-4): > 100 µM (inactive) | GI50 (LOX IMVI): > 100 µM (inactive) | GI50 (A549): > 100 µM (inactive) | GI50 (SK-OV-3): > 100 µM (inactive) | GI50 (NCI/ADR-RES): > 100 µM (inactive) | GI50 (CCRF-CEM): 44.1 µM (inactive) | GI50 (SF-268): > 100 µM (inactive) | GI50 (SF-295): > 100 µM (inactive) | GI50 (PC-3): 54 µM (inactive) | GI50 (RXF 393): > 100 µM (inactive) | GI50 (DU-145): > 100 µM (inactive) | GI50 (K562): > 100 µM (inactive) | GI50 (SN12C): > 100 µM (inactive) | GI50 (Hs-578T): > 100 µM (inactive) | GI50 (SNB-19): > 100 µM (inactive) | GI50 (U-251): 79.1 µM (inactive) | GI50 (NCI-H522): 36.1 µM (inactive) | GI50 (HT-29): > 100 µM (inactive) | GI50 (HCC 2998): > 100 µM (inactive) | GI50 (SK-MEL-5): > 100 µM (inactive) | GI50 (T47D): > 100 µM (inactive) | GI50 (SNB-75): > 100 µM (inactive) | GI50 (UO-31): > 100 µM (inactive) | GI50 (IGROV-1): 93.5 µM (inactive) | GI50 (SR): 58.7 µM (inactive) | GI50 (SK-MEL-28): > 100 µM (inactive) | GI50 (UACC-257): > 100 µM (inactive) | GI50 (OVCAR-8): > 100 µM (inactive) | GI50 (BT-549): > 100 µM (inactive) | GI50 (786-0): > 100 µM (inactive) | GI50 (HL-60): > 100 µM (inactive) | GI50 (MOLT-4): 53.8 µM (inactive) | GI50 (CAKI-1): > 100 µM (inactive) | GI50 (MDA-MB-435): > 100 µM (inactive) | GI50 (HOP-62): 99.1 µM (inactive)
